# From the supplement of paper PMC9386025
# Columns and labels:
# Assay in all cases: drug sensitivity score (DSS) (DSS (dimensionless)); higher = more sensitive (stronger drug response)
# [1] = test system: Kuramochi
# Method in brief: (§1)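 Ovarian cancer cell lines with shRNA induced by 100 ng/ml doxycycline for at least three days, along with patient-derived cultures, were seeded at 1 000 – 1 500 cells per well onto drugs pre-plated in 384-well plates at five concentrations over a 10,000-fold range and incubated for three days at 37 °C and 5.0 % CO2. CellTiter-Glo luminescence measured on a PHERAstar FS served as the viability readout, and each drug's dose-response curve was summarised as a drug sensitivity score following an earlier published method.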
# [2] = test system: FIMM-PDC1 (patient-derived ovarian cancer cells); conditions: genetic perturbation: none (patient-derived cell culture)
# Method in brief: as §1
# [3] = test system: JHOS2
# Method in brief: as §1
# [4] = test system: FIMM-PDC4 (patient-derived ovarian cancer cells); conditions: genetic perturbation: none (patient-derived cell culture)
# Method in brief: as §1
# [5] = test system: FIMM-PDC5 (patient-derived ovarian cancer cells); conditions: genetic perturbation: none (patient-derived cell culture)
# Method in brief: as §1
# [6] = test system: FIMM-PDC7 (patient-derived ovarian cancer cells); conditions: genetic perturbation: none (patient-derived cell culture)
# Method in brief: as §1
# [7] = test system: OVSAHO
# Method in brief: as §1
# [8] = test system: FIMM-PDC6 (patient-derived ovarian cancer cells); conditions: genetic perturbation: none (patient-derived cell culture)
# Method in brief: as §1
# [9] = test system: FIMM-PDC3 (patient-derived ovarian cancer cells); conditions: genetic perturbation: none (patient-derived cell culture)
# Method in brief: as §1
# [10] = genetic perturbation: DOX-induced PTK7 shRNA knockdown
# [11] = genetic perturbation: DOX-induced control shRNA
Structure (SMILES),"drug sensitivity score [1, 10]","drug sensitivity score [1, 11]",drug sensitivity score [2],"drug sensitivity score [3, 10]","drug sensitivity score [3, 11]",drug sensitivity score [4],drug sensitivity score [5],drug sensitivity score [6],"drug sensitivity score [7, 10]","drug sensitivity score [7, 11]",drug sensitivity score [8],drug sensitivity score [9]
CN(C)Cc1ccc(S(=O)(=O)n2ccc(/C=C/C(=O)NO)c2)cc1 [Resminostat],9.8,4.8,6.7,7.8,7.1,4.2,10,7.2,9.3,6.9,8.8,8.7
CC(=O)OC[C@H]1O[C@@H]([S-])[C@H](OC(C)=O)[C@@H](OC(C)=O)[C@@H]1OC(C)=O.CCP(CC)CC.[Au+] [Auranofin],6.75,7.5,1.9,2.5,0.7,1.2,1.1,2.2,11,5.6,4,5.5
CC1(C)CC[C@]2(NC(=O)C(C)(F)F)CC[C@]3(C)[C@H](C(=O)C=C4[C@@]5(C)C=C(C#N)C(=O)C(C)(C)[C@@H]5CC[C@]43C)[C@@H]2C1 [Omaveloxolone],12.2,14.1,13.5,10.1,16.2,9.9,11.3,15.8,19.8,11.9,14.3,19.3
C=CC(=O)Nc1cccc(Nc2nc(Nc3ccc(N4CCN(C(C)=O)CC4)cc3OC)ncc2C(F)(F)F)c1 [Rociletinib],4.75,4.6,5.2,3.6,2.1,10,10.3,10.7,9.1,5.1,10.3,7.6
CN1CCN(CCOc2cc(OC3CCOCC3)c3c(Nc4c(Cl)ccc5c4OCO5)ncnc3c2)CC1 [Saracatinib],10.6,5.2,4.6,1.4,7.3,13.7,15.2,5.8,12.4,6.6,9.4,12
NC(=O)Nc1cc(-c2cccc(F)c2)sc1C(=O)N[C@H]1CCCNC1 [AZD7762],6,2.9,7.75,7.6,4.6,8.1,7,5.8,6.4,3.1,6.4,9.1
Cc1nc(Nc2n[nH]c3c2CN(C(=O)N[C@H](CN(C)C)c2ccccc2)C3(C)C)c2sccc2n1,12.3,8.6,9.6,16.6,13.6,16.6,20.8,11.8,11.1,15.3,14.8,14.3
O=c1[nH]c(=O)n([C@H]2C[C@H](O)[C@@H](CO)O2)cc1F [Floxuridine],8.25,14.1,6.7,< 0,0.6,0.1,3.5,3.5,4,6.6,2.3,3.7
N#CCNC(=O)c1ccc(-c2ccnc(Nc3ccc(N4CCOCC4)cc3)n2)cc1 [Momelotinib],0.75,2.1,0.1,8.3,6.8,4.1,7.2,8,3.6,1.7,4.2,1.9
CC(=O)Nc1cccc(-n2c(=O)n(C3CC3)c(=O)c3c(Nc4ccc(I)cc4F)n(C)c(=O)c(C)c32)c1 [Trametinib],8.9,4.5,0.75,1.6,12.5,13,17.2,9,10.6,7.3,10.3,4.8
CC(=O)O[C@@]12CO[C@@H]1C[C@H](O)[C@@]1(C)C(=O)[C@H](O)C3=C(C)[C@@H](OC(=O)[C@H](O)[C@@H](NC(=O)OC(C)(C)C)c4ccccc4)C[C@@](O)([C@@H](OC(=O)c4ccccc4)[C@H]21)C3(C)C [Docetaxel],18,4.4,15.6,20.3,12.7,18.8,21.5,7.2,7.6,13.5,7.4,21.6
Cc1cc2c(C(=O)NC[C@H](C)c3ccccc3)c(O)c(O)cc2c(O)c1-c1c(C)cc2c(C(=O)NC[C@H](C)c3ccccc3)c(O)c(O)cc2c1O [Sabutoclax],7.8,6.8,4.75,11.1,10.8,6.9,5.2,3.8,4.7,6.5,6.4,11.8
CCc1cncnc1N1CCN(Cc2nc3ccc(C(F)(F)F)cc3[nH]2)CC1,2.3,0.8,1.9,0.1,0.7,3.2,2.9,4.3,1.2,2,8.9,0.5
CCNCCS(=O)(=O)NC[C@@]1(c2ccccc2)SC(NC(=O)C(C)(C)C)=NN1C(=O)C(C)(C)C [Litronesib],10.7,3.1,7.8,8.5,7.7,15.2,21.2,4.3,8.2,9.3,2.8,11.2
CO[C@H]1C[C@@H]2CC[C@@H](C)[C@@](O)(O2)C(=O)C(=O)N2CCCC[C@H]2C(=O)O[C@H]([C@H](C)C[C@@H]2CC[C@@H](OP(C)(C)=O)[C@H](OC)C2)CC(=O)[C@H](C)/C=C(\C)[C@@H](O)[C@@H](OC)C(=O)[C@H](C)C[C@H](C)/C=C/C=C/C=C/1C [Ridaforolimus],2.5,0.7,1.65,< 0,4.1,5,9.5,11.4,0.4,5.3,3.2,4.5
CC(C)Nc1cc(-c2c[nH]c(C(=O)N[C@H](CO)c3cccc(Cl)c3)c2)c(Cl)cn1 [Ulixertinib],10.2,3.3,0.15,2.8,6.8,13.1,14.3,12,7.3,5,12.3,6.4

Structure (SMILES),"drug sensitivity score [1, 10]","drug sensitivity score [1, 11]",drug sensitivity score [2],"drug sensitivity score [3, 10]","drug sensitivity score [3, 11]",drug sensitivity score [4],drug sensitivity score [5],drug sensitivity score [6],"drug sensitivity score [7, 10]","drug sensitivity score [7, 11]",drug sensitivity score [8],drug sensitivity score [9]
COc1ncc(-c2ccc3nccc(-c4ccnnc4)c3c2)cc1NS(=O)(=O)c1ccc(F)cc1F [Omipalisib],17.8,10.8,11.7,9.3,10.5,19.8,21.9,20,17.7,17.7,16.5,17.7
CO[C@@H](C)Cn1c(=O)n(C)c2cnc3ccc(-c4cncc(C(C)(C)O)c4)cc3c21,8.4,8.4,6.85,7.2,8.5,12,16.8,11.6,11.3,8,12.6,6.9
C[C@@H](Oc1cc(-n2cnc3ccc(CN4CCN(C)CC4)cc32)sc1C(N)=O)c1ccccc1C(F)(F)F,12.6,6.3,9.8,25,7.5,12.1,24.1,8.5,16.7,8.4,1.6,12
CCS(=O)(=O)Nc1ccc(Oc2ccc(F)cc2F)c(-c2cn(C)c(=O)c3[nH]ccc23)c1 [Mivebresib],25.8,14.7,13.8,18.2,16.6,12.2,21.9,16.3,19.7,23.8,15.3,15.3
O=C(/C=C\n1cnc(-c2cc(C(F)(F)F)cc(C(F)(F)F)c2)n1)NNc1ccccn1 [Verdinexor],4.4,5.2,3.7,11.3,7.7,11.2,11,11.5,6.1,3.2,11.7,10.9
CN1CCC(CNc2ccc3ncc(-c4cccc(OC(F)(F)F)c4)n3n2)CC1 [SGI-1776],5.3,5.7,5.6,6.2,5.9,6.8,6.9,9.1,7.9,7.2,6.8,6
COc1cc2c(cc1-c1c(C)noc1C)ncc1[nH]c(=O)n([C@H](C)c3ccccn3)c12 [I-BET151],10.6,3.7,3.15,8.4,6.2,3.9,8.9,9.9,5.7,10.3,5.9,4.5
O=C(/C=C\n1cnc(-c2cc(C(F)(F)F)cc(C(F)(F)F)c2)n1)NNc1cnccn1 [Selinexor],9.85,13.5,12.4,18.8,14.5,17.1,20.1,19.5,14.8,7.4,24.4,22.4
Cc1c(-c2ccc(N3CCc4cccc(C(=O)Nc5nc6ccccc6s5)c4C3)nc2C(=O)O)cnn1CC12CC3CC(CC(C3)C1)C2,1.25,3.3,7.4,2.4,< 0,1.2,13.9,7.6,19.8,< 0,24.8,9.6
CCCCC(=O)OCC(=O)[C@]1(O)Cc2c(O)c3c(c(O)c2[C@@H](O[C@H]2C[C@H](NC(=O)C(F)(F)F)[C@H](O)[C@H](C)O2)C1)C(=O)c1c(OC)cccc1C3=O [Valrubicin],5.25,5.1,5.75,5.7,7.5,7.7,8,7,6.7,5.8,7.2,7.3
CCN(CC)Cc1ccc2cc(COC(=O)Nc3ccc(C(=O)NO)cc3)ccc2c1 [Givinostat],8.55,4.8,5.5,6,5.7,0.9,7.2,2.1,7.6,6.9,5.8,6.4
CCS(=O)(=O)c1cccc(-c2cc(C(=O)NC3CCN(C)CC3)c(C)c3[nH]c4ncc(C)cc4c23)c1 [TAK-901],7.3,6.4,4.85,3.2,5.3,7.9,6.5,3,8.3,5.7,7.3,4.3
C/C=C1\NC(=O)[C@H]2CSSCC/C=C/[C@H](CC(=O)N[C@H](C(C)C)C(=O)N2)OC(=O)[C@H](C(C)C)NC1=O [Romidepsin],30.7,21.6,26.2,24.3,24.1,25.6,26.9,27.2,28.1,25.4,31.1,29.6
FC(F)c1nc2ccccc2n1-c1nc(N2CCOCC2)nc(N2CCOCC2)n1 [ZSTK474],13.8,7.5,8.5,6.6,8.1,13.9,17.4,15.7,13.5,14,11.8,10
COc1ccc(-c2nc(N3CCOCC3)c3sc(CN(C)c4ncc(C(=O)NO)cn4)cc3n2)cn1 [CUDC-907],33.1,27.7,29.9,31.3,28.1,22.7,34.5,25.9,27.8,31,29.9,34.3
CCOc1ccccc1-n1c(C(C)N2CCN(C(=O)COc3ccc(Cl)cc3)CC2)nc2ccccc2c1=O (centres undefined) [Erastin],4.8,8.5,0.85,14.6,16.2,< 0,< 0,3.3,12.9,4.7,< 0,17
